Data reported in ChEMBL document CHEMBL3046904, “Synthesis, characterization, bioactivity, and POM analyses of isothiochromeno[3,4-e][1,2]oxazines” (2013).

Experiments:
Assay type in all cases: functional
SF-268 [1] = assay: Cytotoxicity against Homo sapiens (human) SF268 assessed as cell growth at 10^-4 M after 48 hr by Alamar Blue assay; conditions: SF-268, 48 h, read-out: Activity
MCF7 [2] = assay: Cytotoxicity against Homo sapiens (human) MCF7 assessed as cell growth at 10^-4 M after 48 hr by Alamar Blue assay; conditions: MCF7, 48 h, read-out: Activity
NCI-H460 [3] = assay: Cytotoxicity against Homo sapiens (human) NCI-H460 assessed as cell growth at 10^-4 M after 48 hr by Alamar Blue assay; conditions: NCI-H460, 48 h, read-out: Activity
RXF 393 = assay: Cytotoxicity against Homo sapiens (human) RXF393 after 48 hr by Alamar Blue assay; conditions: RXF 393, 48 h
SK-MEL-28 = assay: Cytotoxicity against Homo sapiens (human) SK-MEL-28 after 48 hr by Alamar Blue assay; conditions: SK-MEL-28, 48 h
UACC-62 = assay: Cytotoxicity against Homo sapiens (human) UACC62 after 48 hr by Alamar Blue assay; conditions: UACC-62, 48 h
NCI-H322M = assay: Cytotoxicity against Homo sapiens (human) NCI-H322M after 48 hr by Alamar Blue assay
TK-10 = assay: Cytotoxicity against Homo sapiens (human) TK10 after 48 hr by Alamar Blue assay; conditions: TK-10, 48 h
Hs-578T = assay: Cytotoxicity against Homo sapiens (human) Hs 578T after 48 hr by Alamar Blue assay
SW-620 = assay: Cytotoxicity against Homo sapiens (human) SW620 after 48 hr by Alamar Blue assay; conditions: SW-620, 48 h
A549 = assay: Cytotoxicity against Homo sapiens (human) A549 after 48 hr by Alamar Blue assay; conditions: A549, 48 h
SN12C = assay: Cytotoxicity against Homo sapiens (human) SN12C after 48 hr by Alamar Blue assay
MDA-MB-231 = assay: Cytotoxicity against Homo sapiens (human) MDA-MB-231 after 48 hr by Alamar Blue assay; conditions: MDA-MB-231, 48 h
UACC-257 = assay: Cytotoxicity against Homo sapiens (human) UACC257 after 48 hr by Alamar Blue assay; conditions: UACC-257, 48 h
SF-268 [4] = assay: Cytotoxicity against Homo sapiens (human) SF268 after 48 hr by Alamar Blue assay; conditions: SF-268, 48 h
COLO 205 = assay: Cytotoxicity against Homo sapiens (human) COLO205 after 48 hr by Alamar Blue assay; conditions: COLO 205, 48 h
OVCAR-5 = assay: Cytotoxicity against Homo sapiens (human) OVCAR5 after 48 hr by Alamar Blue assay; conditions: OVCAR-5, 48 h
DU-145 = assay: Cytotoxicity against Homo sapiens (human) DU145 after 48 hr by Alamar Blue assay; conditions: DU-145, 48 h
OVCAR-8 = assay: Cytotoxicity against Homo sapiens (human) OVCAR8 after 48 hr by Alamar Blue assay; conditions: OVCAR-8, 48 h
PC-3 = assay: Cytotoxicity against Homo sapiens (human) PC3 after 48 hr by Alamar Blue assay; conditions: PC-3, 48 h
SR = assay: Cytotoxicity against Homo sapiens (human) SR after 48 hr by Alamar Blue assay
K562 = assay: Cytotoxicity against Homo sapiens (human) K562 after 48 hr by Alamar Blue assay; conditions: K562, 48 h
OVCAR-4 = assay: Cytotoxicity against Homo sapiens (human) OVCAR4 after 48 hr by Alamar Blue assay; conditions: OVCAR-4, 48 h
EKVX = assay: Cytotoxicity against Homo sapiens (human) EKVX after 48 hr by Alamar Blue assay
NCI-H460 [5] = assay: Cytotoxicity against Homo sapiens (human) NCI-H460 after 48 hr by Alamar Blue assay; conditions: NCI-H460, 48 h
OVCAR-3 = assay: Cytotoxicity against Homo sapiens (human) OVCAR3 after 48 hr by Alamar Blue assay; conditions: OVCAR-3, 48 h
HCT-15 = assay: Cytotoxicity against Homo sapiens (human) HCT15 after 48 hr by Alamar Blue assay; conditions: HCT-15, 48 h
SF-295 = assay: Cytotoxicity against Homo sapiens (human) SF295 after 48 hr by Alamar Blue assay; conditions: SF-295, 48 h
NCI-H23 = assay: Cytotoxicity against Homo sapiens (human) NCI-H23 after 48 hr by Alamar Blue assay; conditions: NCI-H23, 48 h
NCI/ADR-RES = assay: Cytotoxicity against Homo sapiens (human) NCI/ADR-RES after 48 hr by Alamar Blue assay
MCF7 [6] = assay: Cytotoxicity against Homo sapiens (human) MCF7 after 48 hr by Alamar Blue assay; conditions: MCF7, 48 h
RPMI-8226 = assay: Cytotoxicity against Homo sapiens (human) RPMI8226 after 48 hr by Alamar Blue assay; conditions: RPMI-8226, 48 h
ACHN = assay: Cytotoxicity against Homo sapiens (human) ACHN after 48 hr by Alamar Blue assay
SK-MEL-5 = assay: Cytotoxicity against Homo sapiens (human) SK-MEL-5 after 48 hr by Alamar Blue assay; conditions: SK-MEL-5, 48 h
HOP-62 = assay: Cytotoxicity against Homo sapiens (human) HOP62 after 48 hr by Alamar Blue assay; conditions: HOP-62, 48 h
SF-539 = assay: Cytotoxicity against Homo sapiens (human) SF539 after 48 hr by Alamar Blue assay; conditions: SF-539, 48 h
786-0 = assay: Cytotoxicity against Homo sapiens (human) 786-0 after 48 hr by Alamar Blue assay; conditions: 786-0, 48 h
[7] = Cytotoxicity against Homo sapiens (human) HL-60(TB) after 48 hr by Alamar Blue assay; conditions: HL-60, 48 h
LOX IMVI = assay: Cytotoxicity against Homo sapiens (human) LOXIMVI after 48 hr by Alamar Blue assay
HCT-116 = assay: Cytotoxicity against Homo sapiens (human) HCT116 after 48 hr by Alamar Blue assay; conditions: HCT-116, 48 h
NCI-H226 = assay: Cytotoxicity against Homo sapiens (human) NCI-H226 after 48 hr by Alamar Blue assay; conditions: NCI-H226, 48 h
Malme-3M = assay: Cytotoxicity against Homo sapiens (human) MALME-3M after 48 hr by Alamar Blue assay
SNB-19 = assay: Cytotoxicity against Homo sapiens (human) SNB19 after 48 hr by Alamar Blue assay; conditions: SNB-19, 48 h
NCI-H522 = assay: Cytotoxicity against Homo sapiens (human) NCI-H522 after 48 hr by Alamar Blue assay; conditions: NCI-H522, 48 h
CAKI-1 = assay: Cytotoxicity against Homo sapiens (human) Caki1 after 48 hr by Alamar Blue assay; conditions: CAKI-1, 48 h
M14 = assay: Cytotoxicity against Homo sapiens (human) M14 after 48 hr by Alamar Blue assay; conditions: M14, 48 h
HOP-92 = assay: Cytotoxicity against Homo sapiens (human) HOP92 after 48 hr by Alamar Blue assay; conditions: HOP-92, 48 h
KM12 = assay: Cytotoxicity against Homo sapiens (human) KM12 after 48 hr by Alamar Blue assay; conditions: KM12, 48 h
T47D = assay: Cytotoxicity against Homo sapiens (human) T47D after 48 hr by Alamar Blue assay
U-251 = assay: Cytotoxicity against Homo sapiens (human) U251 after 48 hr by Alamar Blue assay; conditions: U-251, 48 h
A498 = assay: Cytotoxicity against Homo sapiens (human) A498 after 48 hr by Alamar Blue assay; conditions: A498, 48 h
BT-549 = assay: Cytotoxicity against Homo sapiens (human) BT549 after 48 hr by Alamar Blue assay; conditions: BT-549, 48 h
UO-31 = assay: Cytotoxicity against Homo sapiens (human) UO31 after 48 hr by Alamar Blue assay; conditions: UO-31, 48 h
HT-29 = assay: Cytotoxicity against Homo sapiens (human) HT-29 after 48 hr by Alamar Blue assay; conditions: HT-29, 48 h
MDA-MB-435 = assay: Cytotoxicity against Homo sapiens (human) MDA-MB-435 after 48 hr by Alamar Blue assay; conditions: MDA-MB-435, 48 h
MOLT-4 = assay: Cytotoxicity against Homo sapiens (human) MOLT4 after 48 hr by Alamar Blue assay; conditions: MOLT-4, 48 h
SK-MEL-2 = assay: Cytotoxicity against Homo sapiens (human) SK-MEL-2 after 48 hr by Alamar Blue assay; conditions: SK-MEL-2, 48 h
IGROV-1 = assay: Cytotoxicity against Homo sapiens (human) IGROV1 after 48 hr by Alamar Blue assay; conditions: IGROV-1, 48 h
HCC 2998 = assay: Cytotoxicity against Homo sapiens (human) HCC2998 after 48 hr by Alamar Blue assay; conditions: HCC 2998, 48 h

Cc1ccc(C2=C3SC=c4ccccc4=C3ON=C2c2ccc([N+](=O)[O-])cc2)cc1
growth at 100 µM (SF-268 [1]): 83%
growth at 100 µM (MCF7 [2]): 97%
growth at 100 µM (NCI-H460 [3]): 99%

Cc1ccc(C2=C3SC=c4ccccc4=C3ON=C2c2ccc(Cl)cc2)cc1
GI50 (RXF 393): > 100 µM
GI50 (SK-MEL-28): > 100 µM
growth at 100 µM (SF-268 [1]): 37%
GI50 (UACC-62): > 100 µM
GI50 (NCI-H322M): > 100 µM
GI50 (TK-10): > 100 µM
GI50 (Hs-578T): > 100 µM
GI50 (SW-620): 55.6 µM
GI50 (A549): > 100 µM
GI50 (SN12C): 11.3 µM
GI50 (MDA-MB-231): > 100 µM
GI50 (UACC-257): 25.6 µM
GI50 (SF-268 [4]): 12.1 µM
GI50 (COLO 205): 46.2 µM
GI50 (OVCAR-5): > 100 µM
GI50 (DU-145): > 100 µM
GI50 (OVCAR-8): 11.6 µM
GI50 (PC-3): 21.6 µM
GI50 (SR): 36.5 µM
GI50 (K562): 20.6 µM
GI50 (OVCAR-4): > 100 µM
GI50 (EKVX): > 100 µM
growth at 100 µM (MCF7 [2]): 2%
GI50 (NCI-H460 [5]): > 100 µM
GI50 (OVCAR-3): > 100 µM
GI50 (HCT-15): 81.2 µM
GI50 (SF-295): > 100 µM
GI50 (NCI-H23): 16.6 µM
GI50 (NCI/ADR-RES): > 100 µM
GI50 (MCF7 [6]): 31.2 µM
GI50 (RPMI-8226): 11.8 µM
GI50 (ACHN): > 100 µM
GI50 (SK-MEL-5): 53.1 µM
GI50 (HOP-62): > 100 µM
GI50 (SF-539): > 100 µM
growth at 100 µM (NCI-H460 [3]): 91%
GI50 (786-0): 21.2 µM
GI50 [7]: 0.0182 nM
GI50 (LOX IMVI): 50 µM
GI50 (HCT-116): 62.7 µM
GI50 (NCI-H226): > 100 µM
GI50 (Malme-3M): 22.1 µM
GI50 (SNB-19): > 100 µM
GI50 (NCI-H522): 15.1 µM
GI50 (CAKI-1): > 100 µM
GI50 (M14): > 100 µM
GI50 (HOP-92): 26.5 µM
GI50 (KM12): > 100 µM
GI50 (T47D): 31.4 µM
GI50 (U-251): 20 µM
GI50 (A498): > 100 µM
GI50 (BT-549): 41.2 µM
GI50 (UO-31): > 100 µM
GI50 (HT-29): > 100 µM
GI50 (MDA-MB-435): 44.2 µM
GI50 (MOLT-4): 12.5 µM
GI50 (SK-MEL-2): > 100 µM
GI50 (IGROV-1): > 10 µM
GI50 (HCC 2998): > 100 µM

COc1ccc(C2=C3SC=c4ccccc4=C3ON=C2c2ccc(C)cc2)cc1
growth at 100 µM (SF-268 [1]): 103%
growth at 100 µM (MCF7 [2]): 98%
growth at 100 µM (NCI-H460 [3]): 84%

COc1ccc(C2=NOC3=c4ccccc4=CSC3=C2c2ccc(OC)cc2)cc1
growth at 100 µM (SF-268 [1]): 105%
growth at 100 µM (MCF7 [2]): 116%
growth at 100 µM (NCI-H460 [3]): 102%
